The results in this text go back to patent US9079913B2, “Spiro-oxindole MDM2 antagonists” (The Regents of the University of Michigan, priority 2009, dated 2015).

Where two headings read alike, the source gives them in different places. Some results are limits rather than exact numbers.

The target of data set [1] is recombinant human His-tagged MDM2 protein (residues 1-118) (Homo sapiens (Human), UniProt Q00987). The data set is described as follows: Fluorescence-polarization MDM2 binding assay.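 Also: fluorescence polarization read after three hours of incubation in potassium phosphate buffer containing bovine gamma globulin and Triton X-100.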 The following applies: Table 19A; FP binding assay; read-out: MDM2 IC50.
The test system of data set [2] is Isogenic HCT-116 colon cancer cell lines. The data set is described as follows: cells. The data set is classed as cell-based. The following applies: Homo sapiens, cell growth.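 Also: cells grown in 96-well plates in McCoy's 5A medium with 10% FBS, exposed to compound for 4 days.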
Description: Cells were seeded in 96-well flat bottom cell culture plates at a density of 2−3×10^3 cells/well with compounds and incubated for 4 days.
Data set [3] can be described thus: In vitro microsomal stability, rat. It is filed as in vitro ADME.
Data set [4] deals with cancer cell lines with wild-type p53 / mutated or deleted p53 (ATCC). The data set can be described thus: Cell growth assay (WST-8), other cancer cell lines. The data set is classed as cell-based. The following applies: Homo sapiens. For orientation: Formazan colour is commonly taken as a measure of viable cells.
The mark [5] stands for this setting: HCT-116, read-out: HCT-116 (p53-/-) IC50, Table 19A, HCT-116 p53-/-.
[6] abbreviates: HCT-116, read-out: HCT-116 (p53 wild-type) IC50, Table 19A, HCT-116 p53 wild-type.
Where [7] appears, read: LNCaP, Table 19A, LNCAP cells, p53 wild-type, cell growth, read-out: LNCAP (p53 wild-type) IC50.
The mark [8] stands for this setting: PC-3, Table 19A, PC-3 cells, deleted p53, cell growth, read-out: PC-3 (deleted p53) IC50.
Where [9] appears, read: SJSA-1, Table 19A, SJSA-1 cells, p53 wild-type, cell growth, read-out: SJSA-1 (p53 wild-type) IC50.

Sequence of recombinant human His-tagged MDM2 protein (residues 1-118) (Q00987 1-118): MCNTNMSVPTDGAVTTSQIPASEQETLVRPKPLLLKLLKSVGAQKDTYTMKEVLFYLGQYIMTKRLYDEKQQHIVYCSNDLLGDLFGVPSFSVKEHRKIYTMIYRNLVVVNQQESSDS

With `CNC(=O)[C@@H]1N[C@H](CC(C)(C)C)[C@]2(C(=O)Nc3cc(Cl)c(F)cc32)[C@H]1c1cccc(Cl)c1` [MI-519-40], the IC50 is < 1000 nM in data set [1]; 18500 ± 5500 nM in data set [2] (setting [5]); 1000 ± 100 nM in data set [2] (setting [6]); 1000 ± 100 nM in data set [4] (setting [7]); 14600 ± 2700 nM in data set [4] (setting [8]); 1300 ± 300 nM in data set [4] (setting [9]). In addition, the “% of compound remaining when incubated in rat liver microsomes” value (“% of compound remaining when incubated” below) in data set [3] (Table 17, 0 min) is listed as 100%; in data set [3] (Table 17, 4 min), 84.2%; in data set [3] (Table 17, 6 min), 70.1%; in data set [3] (Table 17, 10 min) it was 59.6%; in data set [3] (Table 17, 15 min), 58.7%; in data set [3] (Table 17, 30 min), 57.6%. Also, the “microsomal stability (in words)” value in data set [3] (rat liver microsomes) is “improved microsomal stability over MI-219”.

Take `CC(C)(C)C[C@H]1N[C@@H](C(N)=O)[C@H](c2cccc(Cl)c2)[C@@]12C(=O)Nc1cc(Cl)c(F)cc12` [MI-519-41]: the IC50 in data set [1] was < 1000 nM; in data set [2] (setting [5]), 17900 ± 2200 nM; in data set [2] (setting [6]), 1000 ± 300 nM; in data set [4] (setting [7]), 1200 nM; in data set [4] (setting [8]), 14900 ± 1100 nM; in data set [4] (setting [9]) it was 1300 ± 400 nM. Also, the “% of compound remaining when incubated” value in data set [3] (Table 17, 0 min) was found to be 100%; in data set [3] (Table 17, 4 min) it was 84.2%; in data set [3] (Table 17, 6 min), 80.4%; in data set [3] (Table 17, 10 min), 66.1%; in data set [3] (Table 17, 15 min) it was 55.4%; in data set [3] (Table 17, 30 min) it was 42.9%.

Take `CC(C)(C)C[C@H]1N[C@@H](C(=O)NCCCN2CCCCC2)[C@H](c2cccc(Cl)c2F)[C@@]12C(=O)Nc1cc(Cl)ccc12` [MI-519-44]: the IC50 was < 10000 nM in data set [1]; 2800 ± 700 nM in data set [2] (setting [5]); 800 nM in data set [2] (setting [6]); 1300 ± 200 nM in data set [4] (setting [7]); 2600 ± 100 nM in data set [4] (setting [8]); 900 ± 100 nM in data set [4] (setting [9]). The “% of compound remaining when incubated” value turned out to be 100% in data set [3] (Table 17, 0 min); 85.6% in data set [3] (Table 17, 4 min); 74.7% in data set [3] (Table 17, 6 min); 66.4% in data set [3] (Table 17, 10 min); 61.2% in data set [3] (Table 17, 15 min); 42.5% in data set [3] (Table 17, 30 min).

Consider `CC(C)N1CCN(CCCNC(=O)[C@@H]2N[C@H](CC(C)(C)C)[C@]3(C(=O)Nc4cc(Cl)ccc43)[C@H]2c2cccc(Cl)c2F)CC1` [MI-519-45], for which the IC50 in data set [1] is < 10000 nM; in data set [2] (setting [5]), 6900 ± 1900 nM; in data set [2] (setting [6]) it was 900 ± 300 nM; in data set [4] (setting [7]), 1000 ± 200 nM; in data set [4] (setting [8]), 5100 ± 900 nM; in data set [4] (setting [9]), 800 ± 200 nM. Besides, the “% of compound remaining when incubated” value in data set [3] (Table 17, 0 min) is 100%; in data set [3] (Table 17, 4 min), 81.1%; in data set [3] (Table 17, 6 min), 59.6%; in data set [3] (Table 17, 10 min), 50.7%; in data set [3] (Table 17, 15 min), 44.3%; in data set [3] (Table 17, 30 min) it was 38.5%.

On to `CN1CCN(CCCNC(=O)[C@@H]2N[C@H](CC(C)(C)C)[C@]3(C(=O)Nc4cc(Cl)ccc43)[C@H]2c2cccc(Cl)c2F)CC1` [MI-519-46], for which the IC50 in data set [1] is < 1000 nM; in data set [2] (setting [5]), 4300 ± 400 nM; in data set [2] (setting [6]) it was 400 ± 100 nM; in data set [4] (setting [7]), 500 ± 300 nM; in data set [4] (setting [8]), 3700 ± 400 nM; in data set [4] (setting [9]), 500 ± 300 nM. Besides, the “% of compound remaining when incubated” value in data set [3] (Table 17, 0 min) is reported as 100%; in data set [3] (Table 17, 4 min), 83.8%; in data set [3] (Table 17, 6 min), 70.9%; in data set [3] (Table 17, 10 min), 53.9%; in data set [3] (Table 17, 15 min), 53.4%; in data set [3] (Table 17, 30 min), 38.3%.

As to `CC(C)(C)C[C@H]1N[C@@H](C(=O)NCCCN2CCN(C3CC3)CC2)[C@H](c2cccc(Cl)c2F)[C@@]12C(=O)Nc1cc(Cl)ccc12` [MI-519-47], the IC50 is < 10000 nM in data set [1]; 7800 ± 900 nM in data set [2] (setting [5]); 1100 ± 200 nM in data set [2] (setting [6]); 1100 ± 300 nM in data set [4] (setting [7]); 5700 ± 600 nM in data set [4] (setting [8]); 1100 nM in data set [4] (setting [9]). Moreover, the “% of compound remaining when incubated” value in data set [3] (Table 17, 0 min) is on record as 100%; in data set [3] (Table 17, 4 min), 80.1%; in data set [3] (Table 17, 6 min), 61.1%; in data set [3] (Table 17, 10 min), 45.3%; in data set [3] (Table 17, 15 min), 38.1%; in data set [3] (Table 17, 30 min) it was 34.3%.

As to `CC(C)(C)C[C@H]1N[C@@H](C(=O)NCCN2CCNCC2)[C@H](c2cccc(Cl)c2)[C@@]12C(=O)Nc1cc(Cl)c(F)cc12` [MI-748], the IC50 in data set [1] is < 1000 nM; in data set [2] (setting [5]), 7600 ± 1000 nM; in data set [2] (setting [6]) it was 900 ± 700 nM; in data set [4] (setting [7]), 800 nM; in data set [4] (setting [8]), 4100 ± 100 nM. Besides, the “% of compound remaining when incubated” value in data set [3] (Table 17, 0 min) came to 100%; in data set [3] (Table 17, 4 min), 79.1%; in data set [3] (Table 17, 6 min) it was 69.7%; in data set [3] (Table 17, 10 min) it was 61.5%; in data set [3] (Table 17, 15 min) it was 49.9%; in data set [3] (Table 17, 30 min), 43.7%.

As for `CN1CCN(CCNC(=O)[C@@H]2N[C@H](CC(C)(C)C)[C@]3(C(=O)Nc4cc(Cl)c(F)cc43)[C@H]2c2cccc(Cl)c2)CC1` [MI-749], the IC50 in data set [1] was < 1000 nM; in data set [2] (setting [5]) it was 7800 ± 1300 nM; in data set [2] (setting [6]), 1200 ± 400 nM; in data set [4] (setting [7]) it was 1000 ± 100 nM; in data set [4] (setting [8]), 5000 ± 500 nM. The “% of compound remaining when incubated” value in data set [3] (Table 17, 0 min) is recorded as 100%; in data set [3] (Table 17, 4 min) it was 82.9%; in data set [3] (Table 17, 6 min), 58.4%; in data set [3] (Table 17, 10 min) it was 54.2%; in data set [3] (Table 17, 15 min) it was 42.7%; in data set [3] (Table 17, 30 min), 23%.

Consider `CN1CCN(CCCNC(=O)[C@@H]2N[C@H](CC(C)(C)C)[C@]3(C(=O)Nc4cc(Cl)c(F)cc43)[C@H]2c2cccc(Cl)c2)CC1` [MI-751], for which the IC50 is < 1000 nM in data set [1]; 6200 ± 1200 nM in data set [2] (setting [5]); 1000 ± 200 nM in data set [2] (setting [6]); 700 ± 200 nM in data set [4] (setting [7]); 3900 ± 900 nM in data set [4] (setting [8]). The “% of compound remaining when incubated” value came to 100% in data set [3] (Table 17, 0 min); 83.1% in data set [3] (Table 17, 4 min); 62.9% in data set [3] (Table 17, 6 min); 50.1% in data set [3] (Table 17, 10 min); 41.6% in data set [3] (Table 17, 15 min); 31.1% in data set [3] (Table 17, 30 min).

As for `CC(C)(C)C[C@H]1N[C@@H](C(=O)NCCCN2CCCC2)[C@H](c2cccc(Cl)c2F)[C@@]12C(=O)Nc1cc(Cl)c(F)cc12` [MI-764], the IC50 in data set [1] is < 1000 nM; in data set [2] (setting [5]) it was 3800 ± 700 nM; in data set [2] (setting [6]) it was 500 ± 200 nM; in data set [4] (setting [7]), 1000 ± 400 nM; in data set [4] (setting [8]), 2400 ± 400 nM; in data set [4] (setting [9]) it was 1200 ± 300 nM. Besides, the “% of compound remaining when incubated” value in data set [3] (Table 17, 0 min) was found to be 100%; in data set [3] (Table 17, 4 min) it was 87.8%; in data set [3] (Table 17, 6 min), 76.5%; in data set [3] (Table 17, 10 min) it was 66.5%; in data set [3] (Table 17, 15 min), 63.9%; in data set [3] (Table 17, 30 min), 55.8%.
